Reference: patent publication US5627177A, “Piperazine derivatives” (John Wyeth & Brother, Ltd., priority 1993, dated 1997)

Columns and labels:
[1] = biological target: T1, 5-HT1A receptor (Rattus norvegicus, UniProt P19327); assay: 5-HT1A receptor binding activity in rat hippocampal membrane homogenate; design: from tissue
T1 sequence (P19327 1-422): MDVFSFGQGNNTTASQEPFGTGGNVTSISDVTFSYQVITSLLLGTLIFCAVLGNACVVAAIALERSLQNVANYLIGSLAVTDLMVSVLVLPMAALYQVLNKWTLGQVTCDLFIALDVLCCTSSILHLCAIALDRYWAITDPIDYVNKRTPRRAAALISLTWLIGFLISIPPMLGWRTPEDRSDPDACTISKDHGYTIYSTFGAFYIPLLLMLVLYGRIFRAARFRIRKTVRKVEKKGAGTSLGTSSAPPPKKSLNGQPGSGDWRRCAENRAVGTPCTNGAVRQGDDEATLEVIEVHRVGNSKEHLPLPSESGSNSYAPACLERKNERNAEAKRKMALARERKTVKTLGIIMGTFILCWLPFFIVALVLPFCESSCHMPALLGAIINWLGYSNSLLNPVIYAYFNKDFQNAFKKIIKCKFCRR
Description: The compounds of the invention are tested for 5-HT1A receptor binding activity in rat hippocampal membrane homogenate by the method of B. S. Alexander and M. D. Wood, J Pharm Pharmacol, 1988, 40, 888-891.

[2] = biological target: T1, 5-HT1A receptor; assay: 5-HT1A receptor antagonism: antagonism of 8-hydroxy-2-(di-n-propylamino)-tetralin (8-OH DPAT) syndrome in the rat; type: in vivo; design: syndrome in the rat; from tissue; host or cells: whole living rat (in vivo); details: sc, antagonism of 8-OH DPAT syndrome, read-out: median effective dose
Description: The compounds are also tested for 5-HT1A receptor antagonism activity in a test involving the antagonism of 8-hydroxy-2-(di-n-propylamino)-tetralin (8-OH DPAT) syndrome in the rat.

IC50 [1]: 0.72 nM | ED50 [2]: 0.3 mg/kg
SMILES: COC(=O)c1cc2c(N3CCN(CCC(C(=O)N4CCCCCC4)c4ccccc4)CC3)cccc2[nH]1 (racemic) [Example 5, 4-[4-(4-Azepan-1-yl-4-oxo-3-phenylbutyl)piperazin-1-yl]-1H-indole-2-carboxylic acid methyl ester]
